Source: paper PMC7168710, “Antibacterial Activity of Rationally Designed Antimicrobial Peptides” (International Journal of Microbiology, 2020)
In brackets after ≈: the same amount, converted by molar mass.

How the values were obtained:
[1] = system: methicillin-resistant S. aureus (ATCC 33591); test: Microtiter broth dilution MIC, MRSA; assay type: cell-based, Staphylococcus aureus; conditions: for MIC, MRSA: microtiter broth dilution (CLSI), TSB, 0.5 McFarland, 24 h 37°C, INT 3 h, absorbance 620 nm, MIC = about 90% killing of inoculum, triplicate, repeated three times; for Sensitivity of MRSA (ATCC 33591) to the peptide: microtiter screening, up to 500 μg/ml
Protocol: (§1) The antibacterial activity of the putative antimicrobial peptides was carried out on Staphylococcus aureus spp., a Gram-positive bacterium obtained from the American Type Culture Collection (ATCC), with the S. aureus spp. comprising of the methicillin-sensitive S. aureus (ATCC 25923) and the methicillin-resistant S. aureus (ATCC 33591) strains. The other bacterial strains tested were K. pneumoniae (ATCC 700603) and P. aeruginosa (ATCC 22108) which are Gram-negative bacteria.
(§2) A stock solution of AMPs was prepared by dissolving an amount of AMPs in sterile distilled water (dH2O), and the various AMP working concentrations used in the microtiter broth dilution assay were prepared in two-fold serial dilutions starting at a concentration of 500 μg/ml to 1.5625 μg/ml. Ampicillin was utilized as the positive control in this assay and a working stock solution of 100 μg/ml was prepared in distilled water.
(§3) The microtiter broth dilution method was employed to measure the antibacterial activity of the AMP's. The assay was performed according to the standards and guidelines as stipulated in the Clinical and Laboratory Standards Institute (CLSI). In brief, the test microorganisms (MRSA (ATCC 33591), MSSA (ATCC 25923), K. pneumoniae (ATCC 700603), and P. aeruginosa (ATCC 22108)) were grown to the midlogarithmic phase in Tryptic Soy Broth (TSB) on a shaker set at 37°C and shaking at 150 rpm. The turbidity was adjusted to a 0.5 McFarland standard with a final volume of 10 ml. From the stock of prepared AMP solutions, various working peptide concentrations (500 μg/ml to 1.5625 μg/ml) were prepared, and a mixture of the bacteria with the peptides was incubated in a 96 well flat bottom plate for 24 h at 37°C. Following 24 h incubation, 40 μl of 2-(4-iodophenyl)-3-(4-nitrophenyl)-5-phenyl-2H-tetrazolium (INT) was added to each well and incubated again for 3 h. Absorbance readings were taken at 620 nm on a microtiter plate reader (Omega®POLARstar BMG Labtech, USA).
(§4) All the antibacterial assays of the AMPs were prepared in triplicate, and the experiments were repeated three times to ensure the reproducibility of the testing. Absorbance results were exported into an Excel file, where they were transformed into a percentage, in a Normalizing process. The MIC of each peptide was defined as the concentration resulting in about 90% killing of the initial inoculums.

[2] = system: methicillin-sensitive S. aureus (ATCC 25923); test: Microtiter broth dilution MIC, MSSA; assay type: cell-based, Staphylococcus aureus; conditions: for MIC, MSSA: microtiter broth dilution (CLSI), TSB, 0.5 McFarland, 24 h 37°C, INT 3 h, absorbance 620 nm, MIC = about 90% killing of inoculum, triplicate, repeated three times; for Sensitivity of MSSA (ATCC 25923) to the peptide: microtiter screening, up to 500 μg/ml
Protocol: as §1, §2, §3, §4

[3] = system: K. pneumoniae (ATCC 700603); test: Microtiter broth dilution MIC, K. pneumoniae; assay type: cell-based, Klebsiella pneumoniae; conditions: for MIC, K. pneumoniae: microtiter broth dilution (CLSI), TSB, 0.5 McFarland, 24 h 37°C, INT 3 h, absorbance 620 nm, MIC = about 90% killing of inoculum, triplicate, repeated three times
Protocol: as §1, §2, §3, §4

[4] = system: P. aeruginosa (ATCC 22108); test: Microtiter broth dilution MIC, P. aeruginosa; assay type: cell-based, Pseudomonas aeruginosa; conditions: for MIC, P. aeruginosa: microtiter broth dilution (CLSI), TSB, 0.5 McFarland, 24 h 37°C, INT 3 h, absorbance 620 nm, MIC = about 90% killing of inoculum, triplicate, repeated three times
Protocol: as §1, §2, §3, §4

[5] = system: P. aeruginosa (ATCC 22108); test: Growth inhibitory assay (time curve, OD620), P. aeruginosa; assay type: cell-based, Pseudomonas aeruginosa; conditions: for Growth inhibition of P. aeruginosa over time: OD620 measured 3 to 8 h after treatment, 96-well plates, different peptide concentrations (25 μg/ml and lower)
Protocol: (§5) The growth curves for K. pneumoniae (ATCC 700603) and P. aeruginosa (ATCC 22108) treated with Molecule 3 and Molecule 7 over time were determined based on measurements taken at 620 nm at each collection time. Different concentrations of the peptide were added to the tested strains (K. pneumonia and P. aeruginosa), which were cultured in 96 well plates using the same method as used for the determination of the antimicrobial activity of the AMPs and the MIC.
(§6) In addition to the determined MICs, we investigated the rate at which the peptides influence the bacterial growth over time (Figures 1 and 2). The OD620 was measured from 3 to 8 h after treatment with a microplate reader, with Ampicillin as a positive control.

[6] = system: K. pneumoniae (ATCC 700603); test: Growth inhibitory assay (time curve, OD620), K. pneumoniae; assay type: cell-based, Klebsiella pneumoniae; conditions: for Growth inhibition of K. pneumoniae over time: OD620 measured 3 to 8 h after treatment, 96-well plates, different peptide concentrations (25 μg/ml and lower)
Protocol: as §5, §6

[7] = system: HepG2 cell line; test: MTT cytotoxicity assay, HepG2; assay type: cell-based, human; conditions: 48 h treatment; for cell lines inhibition, HepG2: 25 μg/ml peptide; for Cell viability, HepG2: 100 μg/ml peptide, one value given for both peptides, repeated three times
Protocol: (§7) The cytotoxicity activity of the AMPs was measured by using the 3-(4,5-dimethylthiazol-2-yl)-2,5- diphenyltetrazolium bromide (MTT) assay as described by Freimoser. In brief, after the trypsinisation of HEK293T and HepG2 cells, 1 × 10^4 cells/well were seeded in a 96-well sterile plate and grown to confluence in Dulbecco's modified Eagle's medium containing 10% fetal calf serum. Molecule 3 and Molecule 7 were each added to the wells at different concentrations (10 μg/ml, 25 μg/ml, 50 μg/ml, and 100 μg/ml). Cells treated with 6% DMSO served as positive control. After 48 h after treatment with the peptides, 20 μl of MTT solution was added to each well, and the plates were incubated in a humidified incubator for 3 h in 5% CO2 at 37°C. After incubation, the media was removed and dimethyl sulfoxide (DMSO) (100 μl per well) was added into each well and the plate was again incubated in a shaker at 37°C, 5% CO2 incubator for 10 min. The plates were gently swirled for 10 min at room temperature to dissolve the precipitate. The absorbance was determined using a multiplate reader (Omega®POLARstar BMG Labtech, USA) at a wavelength of 570 nm, 600 nm, and 630 nm.
(§8) The assay was repeated three times to confirm the reproducibility of the experiment. The final absorbance of the treated cells was obtained by subtracting the background absorbance of the multi-well plate at 630 nm and from the 570 nm measurements. The percentage cell viability was calculated using the following formulae:(1) Cell viability %=OD570−OD630Treated sample/OD570−OD630Untreated control×100.
(§9) Absorbance results were exported into an Excel file, where they were transformed into a percentage, in a process called normalizing.

[8] = system: HEK293T cell line; test: MTT cytotoxicity assay, HEK293T; assay type: cell-based, human; conditions: 48 h treatment; for cell lines inhibition, HEK293T: 25 μg/ml peptide; for Cell viability, HEK 293T: 100 μg/ml peptide, one value given for both peptides, repeated three times
Protocol: as §7, §8, §9

[9] = 100 μg/ml, OD620 time curve 3 to 8 h

Molecule	MIC ([1]; Staphylococcus aureus, read-out: MIC, MRSA) [mg/L]	MIC ([2]; Staphylococcus aureus, read-out: MIC, MSSA) [mg/L]	MIC ([3]; Klebsiella pneumoniae, ATCC700603, read-out: MIC, K. pneumoniae) [mg/L]	MIC ([4]; Pseudomonas aeruginosa, ATCC22108, read-out: MIC, P. aeruginosa) [mg/L]	Growth inhibition of P. aeruginosa, positive control [5, 9]	Growth inhibition of K. pneumoniae, positive control [6, 9]	MIC, MRSA [1] [mg/L]	MIC, MSSA [2] [mg/L]	MIC, K. pneumoniae [3] [mg/L]	MIC, P. aeruginosa [4] [mg/L]	Sensitivity of MRSA (ATCC 33591) to the peptide [1]	Sensitivity of MSSA (ATCC 25923) to the peptide [2]	Growth inhibition of P. aeruginosa over time [5]	Growth inhibition of K. pneumoniae over time [6]	cell lines inhibition, HepG2 [7]	Cell viability, HepG2 [7] [%]	cell lines inhibition, HEK293T [8]	Cell viability, HEK 293T [8] [%]	Period of growth suppression of K. pneumoniae ([6]; peptide concentration 6.25 μg/ml, OD620 time curve) [h]
CC1(C)S[C@@H]2[C@H](NC(=O)[C@H](N)c3ccccc3)C(=O)N2[C@H]1C(=O)O [Ampicillin, reference compound]	> 100	> 100	> 100	100 (≈ 286 µM)	could inhibit the growth	failed to inhibit the growth													
CLKSGAICHPVFCPRRYKQIGTCGLPGTKCCKKP [Molecule 8, putative anti-HIV antimicrobial peptide, chemically synthesized by solid-phase method]							>500	>500	>500	>500									
CLRYKKPECQSDWQCPGKKRCCPDTCGIKCLDPVDTPNPTRRKPGKCPVTYGQCLMLNPPNFCEMDGQCKRDLKCCMGM [Molecule 1, putative anti-HIV antimicrobial peptide, chemically synthesized by solid-phase method]							>500	>500	500	>500									
RWKIFKKIEKMGRNIRDGIVKAGPAIEVLGSAKAIGK [Molecule 7, putative anti-HIV antimicrobial peptide, chemically synthesized by solid-phase method]							>500	>500	12.5	6.25	insensitive	insensitive	could not inhibit P. aeruginosa growth at concentrations lower than the MIC	could not suppress the growth of K. pneumoniae (ATCC 700603) at concentrations lower than the respective MIC values	more than 90%	79.5	more than 90%	59.29	
RWKLFKKIEKVGRNVRDGLIKAGPAIAVIGQAKSLGK [Molecule 3, putative anti-HIV antimicrobial peptide, chemically synthesized by solid-phase method]							>500	>500	12.5	6.25	insensitive	insensitive	able to inhibit P. aeruginosa at all the concentrations and for the duration of the experiment	able to suppress the growth of K. pneumoniae (ATCC 700603) at concentrations equal to the MIC (12.5 μg/ml) and 2x MIC	more than 90%	79.5	more than 90%	59.29	4
WNPFKELEKAGQRVRDAIISAKPAVDVVGQATAIIK [Molecule 10, putative anti-HIV antimicrobial peptide, chemically synthesized by solid-phase method]							>500	>500	500	>500									
